Reference: patent EP1377579B1 (Aventis Pharmaceuticals Inc., priority 2000, dated 2002)
Counter-ions that a name gives are not always drawn.

Tests used:
NCI-H460 = test: In vitro proliferation assay (MTT), NCI-H460; type: cell-based; details: Homo sapiens, NCI-H460; MTT assay; value (SD, n) where given; read-out: H-460 Lung (IC50 µM)
In short: (§1)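 IC50 values come from live-cell estimates based on MTT reduction measured at 570 nm after 3 days of compound treatment. Cells are seeded at 1000 to 2500 per well in serum-supplemented RPMI 1640. They are stained with MTT for 2 to 4 hr at 37 C and the dye is then taken up in DMSO.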

cdk1/cyclin B = cdk1/cyclin B (Homo sapiens, UniProt P06493); test: Cyclin-dependent kinase assay, cdk1/cyclin B; details: CDK1 IC50, nM, Histone H1, 10 µM ATP
cdk4/cyclin D1 = cdk4/cyclin D1 (Homo sapiens, UniProt P11802); test: Cyclin-dependent kinase assay, cdk4/cyclin D1; type: biochemical; details: cyclin D1/cdk4; GST-pRb substrate, 10 µM ATP
MDA-MB-435 = test: In vitro proliferation assay (MTT), MDA-MB-435; type: cell-based, human; details: Homo sapiens, MDA-MB-435, MTT assay; value (SD, n) where given; read-out: MB-435 Breast (IC50 µM)
In short: (§2)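 Step one: plate 1000 to 2500 cells per well and let them recover overnight. Step two: treat with compound for 3 days. Step three: add MTT, dissolve dye in DMSO, read absorbance at 570 nm and determine IC50.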

Colo-205 = test: In vitro proliferation assay (MTT), Colo-205; type: cell-based; details: Homo sapiens, COLO 205; MTT assay; value (SD, n) where given; read-out: Colo-205 Colon (IC50 µM)
In short: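 After 3 days of compound exposure, MTT was added to Colo-205 cultures for 2–4 h at 37 °C. Formazan was dissolved in DMSO and absorbance read at 570 nm. Cells had been plated at 1000–2500/well and left to recover overnight; IC50 values came from the raw readings.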

HL-60 = test: In vitro proliferation assay (MTT), HL-60; type: cell-based; details: Homo sapiens, HL-60; MTT assay; value (SD, n) where given; read-out: HL-60 Leuk. (IC50 µM)
In short: as §1

cdk2/cyclin E = cdk2/cyclin E (Homo sapiens, UniProt P24941); test: Cyclin-dependent kinase assay, cdk2/cyclin E; details: CDK2 IC50, nM, GST-pRb substrate, 10 µM ATP
PC-3 = test: In vitro proliferation assay (MTT), PC-3; type: cell-based, human; details: Homo sapiens, PC-3, MTT assay; value (SD, n) where given; read-out: PC-3 Prostate (IC50 µM)
In short: as §2

Jurkat = test: In vitro proliferation assay (MTT), Jurkat; type: cell-based; details: Homo sapiens, MTT assay, value (SD, n) where given, read-out: Jurkat Leuk. (IC50 µM)
In short: as §1

Sequence of cdk4/cyclin D1 (P11802 whole entry): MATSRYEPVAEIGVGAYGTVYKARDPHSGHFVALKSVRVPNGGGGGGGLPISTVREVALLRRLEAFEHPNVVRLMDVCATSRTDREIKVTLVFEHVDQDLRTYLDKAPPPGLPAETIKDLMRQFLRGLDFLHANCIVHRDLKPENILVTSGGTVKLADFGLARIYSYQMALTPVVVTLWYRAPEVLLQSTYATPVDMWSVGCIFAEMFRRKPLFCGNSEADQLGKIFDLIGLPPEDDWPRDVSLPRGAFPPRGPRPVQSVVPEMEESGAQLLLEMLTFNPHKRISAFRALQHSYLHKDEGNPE
Sequence of cdk4/cyclin D1 (P24385 whole entry partner): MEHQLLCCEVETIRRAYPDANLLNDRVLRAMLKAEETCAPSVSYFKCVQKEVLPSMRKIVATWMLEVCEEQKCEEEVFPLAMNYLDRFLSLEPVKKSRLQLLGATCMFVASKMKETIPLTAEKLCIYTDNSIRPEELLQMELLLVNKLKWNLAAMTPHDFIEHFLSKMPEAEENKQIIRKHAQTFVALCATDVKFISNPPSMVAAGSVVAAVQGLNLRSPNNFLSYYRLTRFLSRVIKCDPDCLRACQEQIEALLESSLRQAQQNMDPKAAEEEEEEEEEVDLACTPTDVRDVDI
Sequence of cdk1/cyclin B (P06493 whole entry): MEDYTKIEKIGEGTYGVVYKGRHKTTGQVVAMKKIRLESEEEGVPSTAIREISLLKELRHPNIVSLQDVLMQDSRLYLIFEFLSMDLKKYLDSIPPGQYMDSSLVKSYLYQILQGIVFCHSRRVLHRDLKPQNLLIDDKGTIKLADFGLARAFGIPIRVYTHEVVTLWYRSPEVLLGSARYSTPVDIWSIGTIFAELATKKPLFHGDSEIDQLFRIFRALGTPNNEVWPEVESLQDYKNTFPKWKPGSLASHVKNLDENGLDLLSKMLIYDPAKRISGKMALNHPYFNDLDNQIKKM
Sequence of cdk1/cyclin B (P14635 whole entry partner): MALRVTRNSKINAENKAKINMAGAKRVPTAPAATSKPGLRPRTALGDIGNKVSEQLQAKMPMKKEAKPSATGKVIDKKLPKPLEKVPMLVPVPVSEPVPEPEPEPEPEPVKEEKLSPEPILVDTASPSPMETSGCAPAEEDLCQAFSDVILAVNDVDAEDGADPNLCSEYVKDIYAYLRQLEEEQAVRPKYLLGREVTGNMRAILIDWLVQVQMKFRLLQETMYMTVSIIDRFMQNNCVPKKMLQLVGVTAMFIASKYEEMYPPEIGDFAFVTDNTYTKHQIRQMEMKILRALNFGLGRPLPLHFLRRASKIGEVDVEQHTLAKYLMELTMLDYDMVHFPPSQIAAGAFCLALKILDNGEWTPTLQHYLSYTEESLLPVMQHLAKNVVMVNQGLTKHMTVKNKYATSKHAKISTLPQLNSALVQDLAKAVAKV

| IC50 (NCI-H460) [µM] | IC50 (cdk1/cyclin B) [nM] | IC50 (cdk4/cyclin D1) [µM] | IC50 (MDA-MB-435) [µM] | IC50 (Colo-205) [µM] | IC50 (HL-60) [µM] | IC50 (cdk2/cyclin E) [nM] | IC50 (PC-3) [µM] | IC50 (Jurkat) [µM] | Compound |
| --- | --- | --- | --- | --- | --- | --- | --- | --- | --- |
| 0.2 | 17 | 0.338 | 0.11 | 0.05 | < 0.02 | 64 | 0.17 | 0.19 | Cc1ccc(NC(=O)N2CCC(Nc3nc(N[C@H]4CC[C@H](N)CC4)nc4c3ncn4C3CCCC3)CC2)cc1 [compound 183, trans-4-[2-(4-Amino-cyclohexylamino)-9-cyclopentyl-9H-purin-6-ylamino]-piperidine-1-carboxylic acid (4-methyl-phenyl)-amide dihydrochloride] |
| 0.28 | 11 | 0.465 | 0.09 | 0.03 | < 0.02 | 56 | 0.16 | 0.21 | CSc1ccc(NC(=O)N2CCC(Nc3nc(N[C@H]4CC[C@H](N)CC4)nc4c3ncn4C3CCCC3)CC2)cc1 [compound 186, trans-4-[2-(4-Amino-cyclohexylamino)-9-cyclopentyl-9H-purin-6-ylamino]-piperidine-1-carboxylic acid (4-methylsulfanyl-phenyl)-amide dihydrochloride] |
| 0.25 | 280 | 0.831 | 0.21 | 0.19 | < 0.02 | 61 | 0.19 | 0.35 | N[C@H]1CC[C@H](Nc2nc(NC3CCN(C(=O)Nc4ccccc4-c4ccccc4)CC3)c3ncn(C4CCCC4)c3n2)CC1 [compound 187, trans-4-[2-(4-Amino-cyclohexylamino)-9-cyclopentyl-9H-purin-6-ylamino]-piperidine-1-carboxylic acid biphenyl-2-yl-amide dihydrochloride] |
| 0.36 | 23 | 0.357 | 0.09 | 0.02 | < 0.02 | 40 | 0.2 | 0.2 | CC(C)c1ccc(NC(=O)N2CCC(Nc3nc(N[C@H]4CC[C@H](N)CC4)nc4c3ncn4C3CCCC3)CC2)cc1 [compound 190, trans-4-[2-(4-Amino-cyclohexylamino)-9-cyclopentyl-9H-purin-6-ylamino]-piperidine-1-carboxylic acid (4-isopropyl-phenyl)-amide dihydrochloride] |
| 0.41 | 23 | 0.297 | 0.25 | 0.07 | < 0.02 | 36 | 0.24 | 0.36 | CCOc1ccc(NC(=O)N2CCC(Nc3nc(N[C@H]4CC[C@H](N)CC4)nc4c3ncn4C3CCCC3)CC2)cc1 [compound 191, trans-4-[2-(4-Amino-cyclohexylamino)-9-cyclopentyl-9H-purin-6-ylamino]-piperidine-1-carboxylic acid (4-ethoxy-phenyl)-amide dihydrochloride] |
| 0.13 | 26 | 0.507 | 0.17 | 0.18 | 0.03 | 8 | 0.18 | 0.26 | COC(=O)c1ccccc1NC(=O)N1CCC(Nc2nc(N[C@H]3CC[C@H](N)CC3)nc3c2ncn3C2CCCC2)CC1 [compound 193, trans-2-[(1-{4-[2-(4-Amino-cyclohexylamino)-9-cyclopentyl-9H-purin-6-ylamino]-piperidin-1-yl}-methanoyl)-amino]-benzoic acid methyl ester dihydrochloride] |
| 0.18 | 70 | 0.67 | 0.26 | 0.06 | 0.06 | 20 | 0.26 | 0.34 | CCOC(=O)c1ccccc1NC(=O)N1CCC(Nc2nc(N[C@H]3CC[C@H](N)CC3)nc3c2ncn3C2CCCC2)CC1 [compound 199, trans-2-[(1-{4-[2-(4-Amino-cyclohexylamino)-9-cyclopentyl-9H-purin-6-ylamino]-piperidin-1-yl}-methanoyl)-amino]-benzoic acid ethyl ester dihydrochloride] |
| 0.19 | 10 | 0.597 | 0.09 | 0.06 | < 0.02 | 23 | 0.16 | 0.21 | N[C@H]1CC[C@H](Nc2nc(NC3CCN(C(=O)Nc4cc(C(F)(F)F)ccc4F)CC3)c3ncn(C4CCCC4)c3n2)CC1 [compound 200, trans-4-[2-(4-Amino-cyclohexylamino)-9-cyclopentyl-9H-purin-6-ylamino]-piperidine-1-carboxylic acid (2-fluoro-5-trifluoromethyl-phenyl)-amide dihydrochloride] |
| 0.33 | 137 | 0.673 | 0.22 | 0.2 | < 0.02 | 48 | 0.23 | 0.53 | N[C@H]1CC[C@H](Nc2nc(NC3CCN(C(=O)Nc4ccc(F)cc4C(F)(F)F)CC3)c3ncn(C4CCCC4)c3n2)CC1 [compound 202, trans-4-[2-(4-Amino-cyclohexylamino)-9-cyclopentyl-9H-purin-6-ylamino]-piperidine-1-carboxylic acid (4-fluoro-2-trifluoromethyl-phenyl)-amide dihydrochloride] |
| 0.54 | 10 | 0.733 | 0.22 | 0.17 | < 0.02 | 51 | 0.3 | 0.5 | N[C@H]1CC[C@H](Nc2nc(NC3CCN(C(=O)Nc4ccc(F)c(C(F)(F)F)c4)CC3)c3ncn(C4CCCC4)c3n2)CC1 [compound 203, trans-4-[2-(4-Amino-cyclohexylamino)-9-cyclopentyl-9H-purin-6-ylamino]-piperidine-1-carboxylic acid (4-fluoro-3-trifluoromethyl-phenyl)-amide dihydrochloride] |
| 0.14 | 50 | 0.044 | 0.11 | 0.03 | 0.02 | 46 | 0.13 | 0.13 | N[C@H]1CC[C@H](Nc2nc(NC3CCN(C(=O)Nc4ccccc4F)CC3)c3ncn(C4CCCC4)c3n2)CC1 [compound 207, trans-4-[2-(4-Amino-cyclohexylamino)-9-cyclopentyl-9H-purin-6-ylamino]-piperidine-1-carboxylic acid (2-fluoro-phenyl)-amide dihydrochloride] |
| 0.29 | 13 | 0.05 | 0.17 | 0.05 | < 0.02 | 34 | 0.26 | 0.13 | N[C@H]1CC[C@H](Nc2nc(NC3CCN(C(=O)Nc4ccc(Cl)c(Cl)c4)CC3)c3ncn(C4CCCC4)c3n2)CC1 [compound 209, trans-4-[2-(4-Amino-cyclohexylamino)-9-cyclopentyl-9H-purin-6-ylamino]-piperidine-1-carboxylic acid (3,4-dichloro-phenyl)-amide dihydrochloride] |
